Read-outs that look alike come from different tables or passages of the source.
Assays:
[1] = target: T1, CYP2B6 (Homo sapiens, UniProt P20813); assay: Cytochrome P450 inhibition CYP2B6; type: in vitro ADME; settings: human liver microsomes
T1 construct: from tissue; host or cells: human liver microsomes
T1 sequence (P20813 1-491): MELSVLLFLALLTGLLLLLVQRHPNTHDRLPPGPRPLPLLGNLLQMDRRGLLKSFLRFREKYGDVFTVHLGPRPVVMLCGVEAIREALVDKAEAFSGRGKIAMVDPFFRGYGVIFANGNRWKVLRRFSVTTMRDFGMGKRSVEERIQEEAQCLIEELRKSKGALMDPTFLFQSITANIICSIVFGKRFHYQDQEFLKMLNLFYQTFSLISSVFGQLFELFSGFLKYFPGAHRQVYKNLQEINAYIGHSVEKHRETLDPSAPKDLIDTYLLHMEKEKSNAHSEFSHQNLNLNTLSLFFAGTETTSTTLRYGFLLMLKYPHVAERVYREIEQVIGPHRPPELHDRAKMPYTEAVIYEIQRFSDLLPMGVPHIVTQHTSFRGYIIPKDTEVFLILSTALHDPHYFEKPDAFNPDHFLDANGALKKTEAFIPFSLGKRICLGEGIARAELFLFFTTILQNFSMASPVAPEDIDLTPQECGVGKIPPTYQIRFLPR
Experimental: (§1) Test compound (0.1, 0.25, 1, 2.5, 10, 25 μM in DMSO; final DMSO concentration 0.3%) was incubated with human liver microsomes (0.25 mg/mL) and NADPH (1 mM) in the presence of a cytochrome P450 isoform-specific probe substrate. The metabolites were monitored by LC-MS/MS and a decrease in the formation of the metabolite compared to the vehicle control used to calculate an IC50 value (test compound concentration which produces 50% inhibition). A cytochrome P450 isoform-specific selective inhibitor was screened alongside the test compounds as a positive control.

[2] = target: T2, CYP2C9 (Homo sapiens, UniProt P11712); assay: Cytochrome P450 inhibition CYP2C9; type: in vitro ADME; settings: human liver microsomes
T2 construct: from tissue; host or cells: human liver microsomes
T2 sequence (P11712 whole entry): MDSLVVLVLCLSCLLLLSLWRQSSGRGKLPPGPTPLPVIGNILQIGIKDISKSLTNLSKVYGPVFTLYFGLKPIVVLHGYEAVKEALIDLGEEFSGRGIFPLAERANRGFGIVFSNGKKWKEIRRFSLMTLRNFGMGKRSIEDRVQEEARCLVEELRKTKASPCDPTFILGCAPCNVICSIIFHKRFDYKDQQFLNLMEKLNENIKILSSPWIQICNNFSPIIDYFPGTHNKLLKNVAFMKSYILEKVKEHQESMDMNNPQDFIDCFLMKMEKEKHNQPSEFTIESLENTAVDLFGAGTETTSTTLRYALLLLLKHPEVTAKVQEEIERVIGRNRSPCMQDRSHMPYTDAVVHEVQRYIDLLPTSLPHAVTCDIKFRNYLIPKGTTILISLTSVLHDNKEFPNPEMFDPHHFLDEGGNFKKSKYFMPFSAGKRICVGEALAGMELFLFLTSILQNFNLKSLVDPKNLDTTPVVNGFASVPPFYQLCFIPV
Experimental: as §1

[3] = target: T3, CYP2D6 (Homo sapiens, UniProt P10635); assay: Cytochrome P450 inhibition CYP2D6; type: in vitro ADME; settings: human liver microsomes
T3 construct: from tissue; host or cells: human liver microsomes
T3 sequence (P10635 whole entry): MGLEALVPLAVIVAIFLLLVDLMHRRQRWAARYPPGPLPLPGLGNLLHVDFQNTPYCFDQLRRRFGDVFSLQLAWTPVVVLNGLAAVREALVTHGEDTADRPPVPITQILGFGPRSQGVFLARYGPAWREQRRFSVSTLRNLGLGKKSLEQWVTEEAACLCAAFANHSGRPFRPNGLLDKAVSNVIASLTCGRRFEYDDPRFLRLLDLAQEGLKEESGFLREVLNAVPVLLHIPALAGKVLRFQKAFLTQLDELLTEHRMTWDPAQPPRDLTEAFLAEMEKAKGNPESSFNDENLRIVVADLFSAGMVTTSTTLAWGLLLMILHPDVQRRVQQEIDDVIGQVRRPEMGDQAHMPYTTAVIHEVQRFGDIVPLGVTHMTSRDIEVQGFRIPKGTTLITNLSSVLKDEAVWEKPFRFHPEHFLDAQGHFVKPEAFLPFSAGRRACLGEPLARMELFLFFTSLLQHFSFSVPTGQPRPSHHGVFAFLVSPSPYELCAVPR
Experimental: as §1

[4] = target: T4, CYP3A4 (Homo sapiens, UniProt P08684); assay: Cytochrome P450 inhibition CYP3A4; type: in vitro ADME; settings: human liver microsomes
T4 construct: from tissue; host or cells: human liver microsomes
T4 sequence (P08684 whole entry): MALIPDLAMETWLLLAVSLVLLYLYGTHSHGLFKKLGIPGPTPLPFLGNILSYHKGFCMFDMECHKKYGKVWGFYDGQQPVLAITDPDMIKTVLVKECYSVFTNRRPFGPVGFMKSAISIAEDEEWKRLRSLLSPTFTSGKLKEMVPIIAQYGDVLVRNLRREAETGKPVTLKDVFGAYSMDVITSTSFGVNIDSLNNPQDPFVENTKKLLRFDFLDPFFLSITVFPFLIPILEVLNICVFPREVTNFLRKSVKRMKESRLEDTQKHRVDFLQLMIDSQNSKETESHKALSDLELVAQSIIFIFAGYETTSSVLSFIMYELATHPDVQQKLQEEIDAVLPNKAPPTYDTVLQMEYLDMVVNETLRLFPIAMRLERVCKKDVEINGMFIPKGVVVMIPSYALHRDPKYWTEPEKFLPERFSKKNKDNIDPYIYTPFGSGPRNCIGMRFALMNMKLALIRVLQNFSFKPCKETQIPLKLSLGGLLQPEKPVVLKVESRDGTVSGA
Experimental: as §1

[5] = In vivo pharmacokinetics in the dog; parameters: species or system Beagle dogs; settings: Beagle, plasma, 3 mg/kg PO
Experimental: The pharmacokinetics of compounds of the invention were studied in vivo in the dog at doses of 3 mg/kg (PO).
Beagle dogs (n=3) were treated with experimental compounds via oral administration (3 mg/kg). Oral administration was performed by gavage at a dose of 3 mg/kg at a concentration of 0.6 mg/mL in […], 30% PEG 400 & 65% (2-hydroxypropyl)-β-cyclodextrin solution (20% w/v aq.). Serial blood samples were collected at 0.08, 0.25, 0.5, 1, 2, 4, 6, 8, 12 and 24 hours post dosing of compound. […] Serial plasma samples were taken at the defined time points and stored immediately at −80° C.
Following protein precipitation with acetonitrile, samples were analysed with tandem. liquid chromatography/mass spectrometry using electrospray ionisation. A full matrix curve with internal standards was employed and PK parameters were calculated.

For `CS(=O)(=O)N1CCC(n2c(CN3C(=O)C4(CC4)c4ccc(F)cc43)nc3cc(Cl)ccc32)CC1` [Compound 33, 1′-{[5-Chloro-1-(1-methanesulfonylpiperidin-4-yl)-1H-1,3-benzodiazol-2-yl]methyl}-6′-fluoro-1′,2′-dihydrospiro[cyclopropane-1,3′-indole]-2′-one], which IC50 [1] is on record?
Its IC50 is > 25 µM.

What about the IC50 [2] of the same compound?
Its IC50 is > 25 µM.

What about the IC50 [3] of the same compound?
Its IC50 is > 25 µM.

What about the IC50 ([4]; substrate = midazolam, read-out: Cytochrome P450 inhibition IC50 CYP3A4 (midazolam)) of the same compound?
Its IC50 is 0.674 µM.

What about the IC50 ([4]; substrate = testosterone, read-out: Cytochrome P450 inhibition IC50 CYP3A4 (testosterone)) of the same compound?
The IC50 was 3.94 µM.

What about the AUC [5] of the same compound?
Its AUC is 3870 ng·h/mL.

And the AUC(0-inf) [5]?
Its AUC(0-inf) is 4280 ng·h/mL.

And the AUC(0-t) [5]?
Its AUC(0-t) is 3870 ng·h/mL.

What about the Cmax [5] of the same compound?
The Cmax was 535 ng/mL.

And the Tmax [5]?
Its Tmax is 0.67 h.

And the half-life [5]?
Its half-life is 7.24 h.

From US11078189B2, “Pharmaceutical compounds” (REVIRAL LIMITED, priority 2017, dated 2021)
